Patent US9150555B2, “Amide derivative and use thereof” (Mitsubishi Tanabe Pharma Corporation, priority 2010, dated 2015)

Columns and labels:
[1] = test system: IL-17 production of mouse spleen cells stimulated by rm-IL-23; assay: Production of IL-17 induced when mouse spleen cells were stimulated by recombinant mouse interleukin-23 (rm-IL-23); assay type: cell-based; settings: Mus musculus, 72 h, inhibition of IL-17 production, DBA/1J mouse spleen cells, rm-IL-23 1 nmol/L, ELISA
Method in brief: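 Spleen cells from 6-7 week-old male DBA/1J mice, 2×10^5 cells/well in 10% FCS RPMI1640, cultured 72 h at 37° C with compound (1 to 1,000 nmol/L) plus 1 nmol/L rm-IL-23. IL-17 in supernatant by ELISA; viability by WST-8 absorbance at 450 nm; IC50 by linear regression of inhibition rate.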

[2] = molecular target: hERG (Homo sapiens, UniProt Q12809); assay: Effects on hERG current (whole-cell clamping); settings: human, HEK 293 cells that express hERG, pH 7.4, hERG inhibition rate (%) (1 μM), 1 μM; tail peak current; hERG-expressed HEK 293 cells
hERG, sequence (Q12809 whole entry): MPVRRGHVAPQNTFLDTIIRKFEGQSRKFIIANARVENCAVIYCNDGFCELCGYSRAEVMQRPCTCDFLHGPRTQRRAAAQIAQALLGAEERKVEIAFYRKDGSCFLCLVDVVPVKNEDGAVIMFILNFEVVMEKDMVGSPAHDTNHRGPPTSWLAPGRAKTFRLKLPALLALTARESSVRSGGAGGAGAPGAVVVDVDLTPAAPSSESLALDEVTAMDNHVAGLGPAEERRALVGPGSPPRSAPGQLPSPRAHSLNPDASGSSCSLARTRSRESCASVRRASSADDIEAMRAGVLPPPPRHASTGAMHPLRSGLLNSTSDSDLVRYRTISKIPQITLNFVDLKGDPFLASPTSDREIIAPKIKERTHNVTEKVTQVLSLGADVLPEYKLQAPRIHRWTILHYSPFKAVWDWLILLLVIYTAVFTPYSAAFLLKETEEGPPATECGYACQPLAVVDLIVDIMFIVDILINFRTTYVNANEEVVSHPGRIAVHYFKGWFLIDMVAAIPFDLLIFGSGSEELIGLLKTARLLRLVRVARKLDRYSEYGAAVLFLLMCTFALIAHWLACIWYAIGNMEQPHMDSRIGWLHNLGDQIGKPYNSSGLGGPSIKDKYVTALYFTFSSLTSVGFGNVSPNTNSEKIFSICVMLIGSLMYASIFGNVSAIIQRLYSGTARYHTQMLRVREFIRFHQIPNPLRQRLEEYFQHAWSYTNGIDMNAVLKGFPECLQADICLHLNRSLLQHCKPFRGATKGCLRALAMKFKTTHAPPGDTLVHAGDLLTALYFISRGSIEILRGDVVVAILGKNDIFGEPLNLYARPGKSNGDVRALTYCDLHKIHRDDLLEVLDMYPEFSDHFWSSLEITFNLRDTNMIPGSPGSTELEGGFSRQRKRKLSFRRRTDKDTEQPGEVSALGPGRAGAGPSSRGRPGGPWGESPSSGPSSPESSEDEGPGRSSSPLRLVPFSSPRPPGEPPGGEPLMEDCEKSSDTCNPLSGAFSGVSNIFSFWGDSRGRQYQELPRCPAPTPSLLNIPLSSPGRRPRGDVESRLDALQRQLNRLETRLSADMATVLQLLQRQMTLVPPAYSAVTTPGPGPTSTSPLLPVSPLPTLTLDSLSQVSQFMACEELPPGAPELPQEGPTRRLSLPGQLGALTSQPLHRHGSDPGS

Compound | IC50 [1] [nM] | inhibition at 1 µM [2] [%]
Cc1c(C(=O)Nc2ccc(C3CCC(O)CC3)nc2)cnn1-c1ccc(Cl)cc1 (stereo not drawn) [Example G9] | 145 | 0.8
Cc1c(C(=O)Nc2ccc(C3CCC(O)CC3)nc2)cnn1-c1ccc(C(F)(F)F)cc1 (stereo not drawn) [Example G10] | 118 | 5.1
Cc1c(C(=O)Nc2ccc([C@]3(C#N)CC[C@@H](O)CC3)nc2)cnn1-c1ccc(OC(F)(F)F)cc1 [Example G11] | 84.6 | 12.2
Cc1c(C(=O)Nc2ccc([C@]3(C#N)CC[C@@H](O)CC3)nc2)cnn1-c1ccc(F)c(F)c1 [Example G12] | 260 | 6.5
Cc1cc(NC(=O)c2cnn(-c3ncc(C(F)(F)F)cc3F)c2C)cnc1[C@H]1CC[C@H](O)CC1 [Example G29, trans-1-[3-Fluoro-5-(trifluoromethyl)pyridin-2-yl]-N-[6-(1-hydroxycyclohexan-4-yl)-5-methylpyridin-3-yl]-5-methyl-1H-pyrazole-4-carboxamide] | 133 | 6.7
COc1cc(C(F)(F)F)cnc1-n1ncc(C(=O)Nc2cnc([C@H]3CC[C@H](O)CC3)c(C)c2)c1C [Example G30] | 147 | 3.2
Cc1cc(NC(=O)c2cnn(-c3ncc(C(F)(F)F)cc3Cl)c2C)cnc1[C@H]1CC[C@H](O)CC1 [Example G32, trans-1-[3-Chloro-5-(trifluoromethyl)pyridin-2-yl]-N-[6-(1-hydroxycyclohexan-4-yl)-5-methylpyridin-3-yl]-5-methyl-1H-pyrazole-4-carboxamide] | 105 | 7.9
Cc1cc(NC(=O)c2cnn(-c3ccc(C(F)(F)F)cn3)c2C)cnc1[C@H]1CC[C@H](O)CC1 [Example J7, trans-N-[6-(4-Hydroxycyclohexyl)-5-methylpyridin-3-yl]-5-methyl-1-[5-(trifluoromethyl)-pyridin-2-yl]-1H-pyrazole-4-carboxamide] | 67.5 | 7.9
Cc1c(C(=O)Nc2ccc([C@H]3CC[C@H](O)CC3)nc2)cnn1-c1ccc(OCCOC(C)(C)C)cc1 [Example J8] | 53 | 11.3
Cc1cc(NC(=O)c2cnn(-c3ccc(C4CC4)cn3)c2C)cnc1[C@H]1CC[C@H](O)CC1 [Example J12] | 149 | 10.8
Cc1c(C(=O)Nc2ccc([C@]3(C#N)CC[C@@H](O)CC3)nc2)cnn1-c1ccc(C2CC2)cn1 [Example J13] | 242 | 10.7
Cc1c(C(=O)Nc2ccc([C@]3(C#N)CC[C@@H](O)CC3)nc2)cnn1-c1ncc(C(F)(F)F)cc1Cl [Example J15] | 438 | 8.2
Cc1c(C(=O)Nc2ccc([C@]3(C#N)CC[C@@H](O)CC3)nc2)cnn1-c1ncc(C(F)(F)F)cc1F [Example J16] | 305 | 13.5
Cc1c(C(=O)Nc2ccc([C@]3(C#N)CC[C@@H](O)CC3)nc2)cnn1-c1ncc(C2CC2)cc1F [Example J17] | 275 | 2.4
Cc1c(C(=O)Nc2ccc([C@]3(C#N)CC[C@@H](O)CC3)nc2)cnn1-c1ccc(C(C)C)cc1 [Example J18] | 137 | 17.8
Cc1c(C(=O)Nc2ccc([C@]3(C#N)CC[C@@H](O)CC3)nc2)cnn1-c1ccc(C2CC2)cc1 [Example J19] | 132 | 18.5
CCc1ccc(-n2ncc(C(=O)Nc3ccc([C@]4(C#N)CC[C@@H](O)CC4)nc3)c2C)cc1 [Example J20] | 90 | 18.1

Compound | IC50 [1] [nM] | inhibition at 1 µM [2] [%]
Cc1c(C(=O)Nc2ccc(C3(C(=O)O)CCCCC3)nc2)cnn1-c1ccc(Cl)cc1 [Example K4, 1-[5-({[1-(4-Chlorophenyl)-5-methyl-1H-pyrazol-4-yl]carbonyl}amino)pyridin-2-yl]-cyclohexanecarboxylic acid] | 127 | 17.2
Cc1c(C(=O)Nc2ccc(C3(C#N)CCC(O)CC3)nc2)cnn1-c1ccc(C(F)(F)F)cn1 (stereo not drawn) [Example K6, N-[6-(r-1-Cyano-c-4-hydroxycyclohexyl)pyridin-3-yl]-5-methyl-1-[5-(trifluoromethyl)pyridin-2-yl]-1H-pyrazole-4-carboxamide] | 148 | 40
Cc1ccc(-n2ncc(C(=O)Nc3ccc([C@]4(C#N)CC[C@@H](OCCO)CC4)nc3)c2C)cc1 [Example K19, N-{6-[r-1-cyano-c-4-(2-hydroxyethoxy)cyclohexyl]pyridin-3-yl}-5-methyl-1-(4-methylphenyl)-1H-pyrazole-4-carboxamide] | 148 | 2.4
CNC1CC=C(c2ncc(NC(=O)c3cnn(-c4ccc(C(F)(F)F)cn4)c3C)cc2C)CC1 (stereo not drawn) [Example K26, 5-Methyl-N-[5-methyl-6-(4-methylaminocyclohex-1-en-1-yl)pyridin-3-yl]-1-[5-(trifluoromethyl)pyridin-2-yl]-1H-pyrazole-4-carboxamide] | 376 | 14.3
CC(=O)N(C)C1CC=C(c2ncc(NC(=O)c3cnn(-c4ccc(C(F)(F)F)cn4)c3C)cc2C)CC1 (stereo not drawn) [Example K27, N-{6-[4-(N-Acetyl-N-methylamino)cyclohex-1-en-1-yl]-5-methylpyridin-3-yl}-5-methyl-1-[5-(trifluoromethyl)pyridin-2-yl]-1H-pyrazole-4-carboxamide] | 242 | 9.7
Cc1cc(NC(=O)c2cnn(-c3ccc(C(F)(F)F)cn3)c2C)cnc1C1=CCC(N(C)C(=O)C(C)(C)C)CC1 (stereo not drawn) [Example K28, N-(6-{4-[N-(2,2-Dimethylpropion-1-yl)-N-methylamino]cyclohex-1-en-1-yl}-5-methylpyridin-3-yl)-5-methyl-1-[5-(trifluoromethyl)pyridin-2-yl]-1H-pyrazole-4-carboxamide] | 8.11 | 5.1
Cc1cc(NC(=O)c2cnn(-c3ccc(C(F)(F)F)cn3)c2C)cnc1C1=CCC(N(C)CCC(C)(C)C)CC1 (stereo not drawn) [Example K30, N-(6-[4-[N-(3,3-Dimethylbutyl)-N-methylamino]cyclohex-1-en-1-yl]-5-methylpyridin-3-yl)-5-methyl-1-[5-(trifluoromethyl)pyridin-2-yl]-1H-pyrazole-4-carboxamide] | 368 | 79.6
Cc1cc(NC(=O)c2cnn(-c3ccc(C(F)(F)F)cn3)c2C)cnc1C1=CCC(C(C)(C)O)CC1 (stereo not drawn) [Example K31, N-{6-[4-(1-Hydroxy-1-methylethyl)cyclohex-1-en-1-yl]-5-methylpyridin-3-yl}-5-methyl-1-[5-(trifluoromethyl)pyridin-2-yl]-1H-pyrazole-4-carboxamide] | 4.27 | 15.8
Cc1c(C(=O)Nc2ccc(C3=CCC(C(C)(C)O)CC3)nc2)cnn1-c1ccc(C(F)(F)F)cn1 (stereo not drawn) [Example K32, N-{6-[4-(1-Hydroxyl-methylethyl)cyclohex-1-en-1-yl]pyridin-3-yl}-5-methyl-1-[5-(trifluoromethyl)pyridin-2-yl]-1H-pyrazole-4-carboxamide] | 6.32 | 11.3
CC[C@]1(O)CC[C@](C#N)(c2ccc(NC(=O)c3cnn(-c4ccc(F)cc4)c3C)cn2)CC1 [Example K33, N-[6-(r-1-Cyano-4-ethyl-c-4-hydroxycyclohexan-1-yl)pyridin-3-yl]-1-(4-fluorophenyl)-5-methyl-1H-pyrazole-4-carboxamide] | 206 | 8
CC[C@]1(O)CC[C@@](C#N)(c2ccc(NC(=O)c3cnn(-c4ccc(C)cc4)c3C)cn2)CC1 [Example K34, N-[6-(r-1-Cyano-4-ethyl-t-4-hydroxycyclohexan-1-yl)pyridin-3-yl]-5-methyl-1-(4-methylphenyl)-1H-pyrazole-4-carboxamide] | 154 | 0.5
CC[C@]1(O)CC[C@](C#N)(c2ccc(NC(=O)c3cnn(-c4ccc(C)cc4)c3C)cn2)CC1 [Example K36, N-[6-(r-1-Cyano-4-ethyl-c-4-hydroxycyclohexan-1-yl)pyridin-3-yl]-5-methyl-1-(4-methylphenyl)-1H-pyrazole-4-carboxamide] | 124 | 8.1
Cc1c(C(=O)Nc2cnc(C3=CCC(N4CCOCC4)CC3)c(C#N)c2)cnn1-c1ccc(C(F)(F)F)cn1 (stereo not drawn) [Example K38, N-{5-Cyano-6-[4-(morpholin-4-yl)cyclohex-1-en-1-yl]pyridin-3-yl}-5-methyl-1-[5-(trifluoromethyl)pyridin-2-yl]-1H-pyrazole-4-carboxamide] | 58.1 | 44.1
Cc1cc(NC(=O)c2cnn(-c3ccc(C(F)(F)F)cn3)c2C)cnc1C1=CCN(C(=O)C(C)(C)C)CC1 [Example K41, N-{6-[1-(2,2-Dimethylpropanoyl)-1,2,3,6-tetrahydropyridin-4-yl]-5-methylpyridin-3-yl}-5-methyl-1-[5-(trifluoromethyl)pyridin-2-yl]-1H-pyrazole-4-carboxamide] | 161 | 25.6
Cc1cc(NC(=O)c2cnn(-c3ccc(C(F)(F)F)cn3)c2C)cnc1C1=CCN(S(=O)(=O)C(C)C)CC1 [Example K45, 5-Methyl-N-{5-methyl-6-[1-(propane-2-sulfonyl)-1,2,3,6-tetrahydropyridin-4-yl]pyridin-3-yl}-1-[5-(trifluoromethyl)pyridin-2-yl]-1H-pyrazole-4-carboxamide] | 46.2 | 21.1
Cc1c(C(=O)Nc2ccc(C3(C#N)CCN(S(=O)(=O)C(C)C)CC3)nc2)cnn1-c1ccc(C(F)(F)F)cn1 [Example K51, N-{6-[4-Cyano-1-(propane-2-sulfonyl)piperidin-4-yl]pyridin-3-yl}-5-methyl-1-[5-(trifluoromethyl)pyridin-2-yl]-1H-pyrazole-4-carboxamide] | 37.3 | 43.7
